Experiments:
[1] = biological target: T1, pyruvate carboxylase (PYC) (Sus scrofa, UniProt A0A8W4F6F0); test: Elution of PYC from ATP-Sepharose column loaded with porcine liver proteome, IC50 estimate; assay type: binding; settings: estimated from percent of protein eluted from ATP-Sepharose column, read-out: Approximate IC50 for PYC
T1 construct: a porcine liver proteome was run over an ATP-Sepharose™ column; from tissue; host or cells: porcine liver
T1 sequence (A0A8W4F6F0 1-1157): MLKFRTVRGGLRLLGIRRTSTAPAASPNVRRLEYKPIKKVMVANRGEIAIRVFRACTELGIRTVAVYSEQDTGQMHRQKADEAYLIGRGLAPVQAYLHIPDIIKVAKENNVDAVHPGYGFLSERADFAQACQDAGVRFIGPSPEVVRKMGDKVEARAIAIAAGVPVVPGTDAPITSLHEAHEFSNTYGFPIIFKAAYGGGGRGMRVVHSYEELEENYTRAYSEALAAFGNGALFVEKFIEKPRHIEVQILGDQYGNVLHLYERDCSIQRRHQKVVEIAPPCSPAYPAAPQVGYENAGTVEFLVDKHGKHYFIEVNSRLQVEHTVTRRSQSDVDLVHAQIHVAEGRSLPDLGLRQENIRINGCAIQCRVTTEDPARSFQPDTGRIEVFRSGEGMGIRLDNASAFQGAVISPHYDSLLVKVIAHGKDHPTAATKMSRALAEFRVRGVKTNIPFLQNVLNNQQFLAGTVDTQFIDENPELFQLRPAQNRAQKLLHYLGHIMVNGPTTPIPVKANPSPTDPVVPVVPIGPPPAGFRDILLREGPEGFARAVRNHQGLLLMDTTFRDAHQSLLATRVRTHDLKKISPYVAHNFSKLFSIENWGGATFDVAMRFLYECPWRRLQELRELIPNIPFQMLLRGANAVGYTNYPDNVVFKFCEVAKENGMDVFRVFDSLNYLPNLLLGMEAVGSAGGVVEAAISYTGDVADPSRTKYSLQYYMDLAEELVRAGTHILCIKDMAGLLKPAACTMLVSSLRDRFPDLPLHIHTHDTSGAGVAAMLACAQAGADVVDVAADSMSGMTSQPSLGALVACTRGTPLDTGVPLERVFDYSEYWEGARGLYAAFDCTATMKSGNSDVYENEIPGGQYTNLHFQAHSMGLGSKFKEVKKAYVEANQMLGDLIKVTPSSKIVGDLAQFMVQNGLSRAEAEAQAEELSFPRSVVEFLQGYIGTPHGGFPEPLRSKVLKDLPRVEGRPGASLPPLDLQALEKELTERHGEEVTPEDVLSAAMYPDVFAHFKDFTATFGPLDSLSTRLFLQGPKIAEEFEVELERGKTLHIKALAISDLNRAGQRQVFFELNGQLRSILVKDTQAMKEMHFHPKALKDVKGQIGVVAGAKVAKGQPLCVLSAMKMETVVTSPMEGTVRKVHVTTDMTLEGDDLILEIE
Description: Similar experiments were carried out to compare the IC50 values for PYC, PCCA, and PCCB. In these trials, a porcine liver proteome was run over an ATP-Sepharose™ column to bind all purine-binding proteins. The ATP-Sepharose™ column was washed several times, and then eluted with the compound of Formula III at concentrations of 1 μM, 5 μM, 10 μM, 50 μM, 100 μM, and 500 μM to identify proteins that bound to this compound. (The amount of protein eluted at the higher concentration ranges plateaued, thus confirming that the entire fraction of bound protein had been eluted.) The eluted fractions were run on a 1-dimensional SDS polyacrylamide gel.
(§1) Gels were stained with a fluorescent stain such as sypro ruby (a highly sensitive fluorescent protein stain that can readily detect less than 1 fmol of total protein, i.e., less than 0.04 ng for a 40 kDa protein). The gels were imaged using a standard flat bed gel imager and the amount of protein estimated by densiometry. The percent of protein eluted from the column at each concentration was determined and IC50 values were calculated from these estimates. Where necessary, the eluted proteins were cut out of the gel, and identified using mass spectral techniques.
These steps were repeated with each of the compounds of Formulas IV-X, MTX, and the c series derivative. The values obtained were then compared to those for DHFR.

[2] = biological target: T2, propionyl-CoA carboxylase subunit alpha (PCCA) (Sus scrofa, UniProt P0DTA4); test: Elution of PCCA from ATP-Sepharose column loaded with porcine liver proteome, IC50 estimate; assay type: binding; settings: estimated from percent of protein eluted from ATP-Sepharose column, read-out: Approximate IC50 for PCCA
T2 construct: a porcine liver proteome was run over an ATP-Sepharose™ column; from tissue; host or cells: porcine liver
T2 sequence (P0DTA4 53-730): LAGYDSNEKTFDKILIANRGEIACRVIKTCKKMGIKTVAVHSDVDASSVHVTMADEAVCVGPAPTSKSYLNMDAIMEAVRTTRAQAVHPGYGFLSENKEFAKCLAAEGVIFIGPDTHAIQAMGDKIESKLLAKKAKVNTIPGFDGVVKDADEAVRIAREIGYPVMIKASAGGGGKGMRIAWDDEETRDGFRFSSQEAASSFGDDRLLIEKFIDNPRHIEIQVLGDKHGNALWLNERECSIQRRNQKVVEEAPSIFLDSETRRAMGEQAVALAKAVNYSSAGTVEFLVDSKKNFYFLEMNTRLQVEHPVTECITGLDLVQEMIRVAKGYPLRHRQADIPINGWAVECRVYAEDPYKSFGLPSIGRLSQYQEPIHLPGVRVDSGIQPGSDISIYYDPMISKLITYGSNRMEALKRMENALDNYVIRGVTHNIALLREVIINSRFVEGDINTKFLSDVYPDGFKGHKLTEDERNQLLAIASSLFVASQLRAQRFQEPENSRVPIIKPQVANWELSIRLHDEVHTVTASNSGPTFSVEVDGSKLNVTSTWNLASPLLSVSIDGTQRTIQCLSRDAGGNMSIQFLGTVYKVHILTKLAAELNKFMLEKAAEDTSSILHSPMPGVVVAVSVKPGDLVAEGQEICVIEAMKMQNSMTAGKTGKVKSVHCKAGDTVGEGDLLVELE
T2 sequence (P79384 29-539 partner): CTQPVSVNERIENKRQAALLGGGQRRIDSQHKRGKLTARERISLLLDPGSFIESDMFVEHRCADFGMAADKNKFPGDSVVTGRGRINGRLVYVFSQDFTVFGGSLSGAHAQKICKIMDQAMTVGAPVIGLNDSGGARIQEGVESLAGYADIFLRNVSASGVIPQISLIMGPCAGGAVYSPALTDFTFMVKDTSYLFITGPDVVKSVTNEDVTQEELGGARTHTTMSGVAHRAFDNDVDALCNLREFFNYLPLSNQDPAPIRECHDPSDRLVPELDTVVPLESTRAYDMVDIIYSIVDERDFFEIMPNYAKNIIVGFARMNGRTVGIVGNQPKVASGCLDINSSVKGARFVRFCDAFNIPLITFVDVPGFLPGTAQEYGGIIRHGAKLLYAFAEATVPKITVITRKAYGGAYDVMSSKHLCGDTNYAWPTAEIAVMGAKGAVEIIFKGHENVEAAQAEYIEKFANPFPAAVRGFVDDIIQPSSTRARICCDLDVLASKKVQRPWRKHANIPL
Description: (§2) Similar experiments were carried out to compare the IC50 values for PYC, PCCA, and PCCB. In these trials, a porcine liver proteome was run over an ATP-Sepharose™ column to bind all purine-binding proteins. The ATP-Sepharose™ column was washed several times, and then eluted with the compound of Formula III at concentrations of 1 μM, 5 μM, 10 μM, 50 μM, 100 μM, and 500 μM to identify proteins that bound to this compound.
as §1
(§3) The values obtained were then compared to those for DHFR.

[3] = biological target: T3, propionyl-CoA carboxylase subunit beta (PCCB) (Sus scrofa, UniProt P79384); test: Elution of PCCB from ATP-Sepharose column loaded with porcine liver proteome, IC50 estimate; assay type: binding; settings: estimated from percent of protein eluted from ATP-Sepharose column, read-out: Approximate IC50 for PCCB
T3 construct: a porcine liver proteome was run over an ATP-Sepharose™ column; from tissue; host or cells: porcine liver
T3 sequence (P79384 29-539): T2 sequence (P79384 29-539 partner)
T3 sequence (P0DTA4 53-730 partner): T2 sequence (P0DTA4 53-730)
Description: as §2, §1, §3

DHFR = biological target: T4, DHFR (Homo sapiens, UniProt P00374); test: DHFR enzymatic assay; assay type: biochemical; settings: determined by enzymatic assay
T4 sequence (P00374 1-187): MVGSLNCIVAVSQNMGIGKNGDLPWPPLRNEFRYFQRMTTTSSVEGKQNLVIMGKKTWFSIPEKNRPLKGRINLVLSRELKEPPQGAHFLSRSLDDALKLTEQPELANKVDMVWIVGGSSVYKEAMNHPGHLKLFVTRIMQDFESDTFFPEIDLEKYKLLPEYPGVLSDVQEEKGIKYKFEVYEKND

Her2 = Her2 (Homo sapiens, UniProt P04626); test: Elution of Her2 from ATP-Sepharose column by compound (Proteome Mining), IC50 estimate; assay type: binding; settings: estimated from percent of protein eluted from ATP-Sepharose column, gel densitometry; read-out: Approximate IC50 for Her2
Description: as §1, with “A proteome containing a known quantity of Her2, EGFR, and B-Raf was run over an ATP-Sepharose™ column in order to bind all purine-binding proteins. […] The ATP-Sepharose™ was washed several times, and then eluted with the compound of Formula III. The experiment was run in duplicate at concentrations of 20 μM, 100 μM, and 500 μM of the compound of Formula III. The eluted fractions were run on a 1-dimensional SDS polyacrylamide gel. Gels” for “Gels”

EGFR = EGFR (Homo sapiens, UniProt P00533); test: Elution of EGFR from ATP-Sepharose column by compound (Proteome Mining), IC50 estimate; assay type: binding; settings: estimated from percent of protein eluted from ATP-Sepharose column, gel densitometry; read-out: Approximate IC50 for EGFR
Description: (§4) A proteome containing a known quantity of Her2, EGFR, and B-Raf was run over an ATP-Sepharose™ column in order to bind all purine-binding proteins. See, WO 00/63694 and U.S. Provisional Application No. 60/453,697 filed Jan. 22, 2003, each of which is incorporated by reference in its entirety. The ATP-Sepharose™ was washed several times, and then eluted with the compound of Formula III. The experiment was run in duplicate at concentrations of 20 μM, 100 μM, and 500 μM of the compound of Formula III. The eluted fractions were run on a 1-dimensional SDS polyacrylamide gel. Gels were stained with a fluorescent stain such as sypro ruby (a highly sensitive fluorescent protein stain that can readily detect less than 1 fmol of total protein, i.e., less than 0.04 ng for a 40 kDa protein). The gels were imaged using a standard flat bed gel imager and the amount of protein estimated by densiometry. The percent of protein eluted from the column at each concentration was determined and IC50 values were calculated from these estimates. Where necessary, the eluted proteins were cut out of the gel, and identified using mass spectral techniques.
(§5) These steps were repeated with each of the compounds of Formulas IV-X, MTX, and the c series derivative.

B-Raf = B-Raf (Homo sapiens, UniProt P15056); test: Elution of B-Raf from ATP-Sepharose column by compound (Proteome Mining), IC50 estimate; assay type: binding; settings: estimated from percent of protein eluted from ATP-Sepharose column, gel densitometry; read-out: Approximate IC50 for B-Raf
Description: as §4, §5

Sequence of EGFR (P00533 25-1210, species assumed): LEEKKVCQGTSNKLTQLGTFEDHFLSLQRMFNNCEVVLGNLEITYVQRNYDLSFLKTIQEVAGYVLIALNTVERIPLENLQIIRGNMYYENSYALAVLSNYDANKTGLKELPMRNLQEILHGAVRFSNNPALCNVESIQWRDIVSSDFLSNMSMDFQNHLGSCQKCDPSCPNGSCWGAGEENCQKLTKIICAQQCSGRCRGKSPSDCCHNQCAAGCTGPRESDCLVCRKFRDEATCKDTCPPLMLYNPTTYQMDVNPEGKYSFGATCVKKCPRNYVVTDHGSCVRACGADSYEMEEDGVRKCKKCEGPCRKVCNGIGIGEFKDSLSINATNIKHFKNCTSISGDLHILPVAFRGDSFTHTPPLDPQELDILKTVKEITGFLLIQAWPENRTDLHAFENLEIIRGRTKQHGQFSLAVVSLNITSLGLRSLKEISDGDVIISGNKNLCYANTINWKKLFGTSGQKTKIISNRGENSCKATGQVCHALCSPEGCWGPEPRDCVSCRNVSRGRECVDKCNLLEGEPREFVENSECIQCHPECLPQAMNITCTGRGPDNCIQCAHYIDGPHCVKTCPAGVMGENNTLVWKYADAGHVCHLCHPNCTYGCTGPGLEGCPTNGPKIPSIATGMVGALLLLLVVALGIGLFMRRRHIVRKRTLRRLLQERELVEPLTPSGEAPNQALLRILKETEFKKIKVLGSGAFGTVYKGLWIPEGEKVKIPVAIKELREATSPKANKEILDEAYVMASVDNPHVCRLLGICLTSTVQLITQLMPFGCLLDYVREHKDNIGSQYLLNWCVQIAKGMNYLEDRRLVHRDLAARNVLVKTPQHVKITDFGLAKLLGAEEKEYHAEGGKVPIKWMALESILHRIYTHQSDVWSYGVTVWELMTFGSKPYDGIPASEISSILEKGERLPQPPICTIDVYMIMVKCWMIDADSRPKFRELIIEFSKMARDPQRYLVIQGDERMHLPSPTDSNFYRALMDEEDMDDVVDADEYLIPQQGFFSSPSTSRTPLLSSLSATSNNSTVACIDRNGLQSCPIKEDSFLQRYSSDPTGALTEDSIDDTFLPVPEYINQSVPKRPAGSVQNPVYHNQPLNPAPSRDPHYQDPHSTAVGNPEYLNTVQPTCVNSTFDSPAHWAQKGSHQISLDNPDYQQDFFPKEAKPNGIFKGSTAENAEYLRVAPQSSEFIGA
Sequence of Her2 (P04626 23-1255, species assumed): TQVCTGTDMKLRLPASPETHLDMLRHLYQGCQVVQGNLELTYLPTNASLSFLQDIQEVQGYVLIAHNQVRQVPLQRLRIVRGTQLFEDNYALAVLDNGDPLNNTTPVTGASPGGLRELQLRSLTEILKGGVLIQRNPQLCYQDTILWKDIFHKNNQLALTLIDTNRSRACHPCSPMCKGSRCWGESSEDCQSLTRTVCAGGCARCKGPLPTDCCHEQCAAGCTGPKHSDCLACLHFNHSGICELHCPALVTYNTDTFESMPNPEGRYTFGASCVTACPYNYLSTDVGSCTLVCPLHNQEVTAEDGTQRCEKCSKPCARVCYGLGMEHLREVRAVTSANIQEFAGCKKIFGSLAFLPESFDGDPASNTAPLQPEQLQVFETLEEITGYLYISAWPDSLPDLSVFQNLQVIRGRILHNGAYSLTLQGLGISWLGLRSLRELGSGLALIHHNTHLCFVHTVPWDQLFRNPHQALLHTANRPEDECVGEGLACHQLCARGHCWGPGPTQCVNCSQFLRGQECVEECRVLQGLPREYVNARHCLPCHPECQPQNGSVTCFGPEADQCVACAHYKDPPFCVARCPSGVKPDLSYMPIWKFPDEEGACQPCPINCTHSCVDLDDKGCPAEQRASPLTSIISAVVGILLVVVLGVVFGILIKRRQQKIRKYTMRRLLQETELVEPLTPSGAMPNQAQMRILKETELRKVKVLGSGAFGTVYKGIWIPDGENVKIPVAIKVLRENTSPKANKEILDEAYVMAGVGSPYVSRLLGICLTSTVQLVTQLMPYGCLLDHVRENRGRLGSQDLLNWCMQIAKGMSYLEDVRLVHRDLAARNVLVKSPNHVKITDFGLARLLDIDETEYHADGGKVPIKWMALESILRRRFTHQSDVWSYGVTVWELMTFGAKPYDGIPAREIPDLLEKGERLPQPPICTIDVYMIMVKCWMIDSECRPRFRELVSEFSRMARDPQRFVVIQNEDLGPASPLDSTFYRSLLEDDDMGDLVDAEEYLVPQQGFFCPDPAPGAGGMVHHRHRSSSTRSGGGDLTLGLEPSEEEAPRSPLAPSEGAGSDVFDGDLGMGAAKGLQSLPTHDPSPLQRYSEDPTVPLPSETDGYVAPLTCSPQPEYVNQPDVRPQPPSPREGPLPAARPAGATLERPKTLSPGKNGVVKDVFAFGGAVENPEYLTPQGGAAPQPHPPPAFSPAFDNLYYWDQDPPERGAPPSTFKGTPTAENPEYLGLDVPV
Sequence of B-Raf (P15056 whole entry, species assumed): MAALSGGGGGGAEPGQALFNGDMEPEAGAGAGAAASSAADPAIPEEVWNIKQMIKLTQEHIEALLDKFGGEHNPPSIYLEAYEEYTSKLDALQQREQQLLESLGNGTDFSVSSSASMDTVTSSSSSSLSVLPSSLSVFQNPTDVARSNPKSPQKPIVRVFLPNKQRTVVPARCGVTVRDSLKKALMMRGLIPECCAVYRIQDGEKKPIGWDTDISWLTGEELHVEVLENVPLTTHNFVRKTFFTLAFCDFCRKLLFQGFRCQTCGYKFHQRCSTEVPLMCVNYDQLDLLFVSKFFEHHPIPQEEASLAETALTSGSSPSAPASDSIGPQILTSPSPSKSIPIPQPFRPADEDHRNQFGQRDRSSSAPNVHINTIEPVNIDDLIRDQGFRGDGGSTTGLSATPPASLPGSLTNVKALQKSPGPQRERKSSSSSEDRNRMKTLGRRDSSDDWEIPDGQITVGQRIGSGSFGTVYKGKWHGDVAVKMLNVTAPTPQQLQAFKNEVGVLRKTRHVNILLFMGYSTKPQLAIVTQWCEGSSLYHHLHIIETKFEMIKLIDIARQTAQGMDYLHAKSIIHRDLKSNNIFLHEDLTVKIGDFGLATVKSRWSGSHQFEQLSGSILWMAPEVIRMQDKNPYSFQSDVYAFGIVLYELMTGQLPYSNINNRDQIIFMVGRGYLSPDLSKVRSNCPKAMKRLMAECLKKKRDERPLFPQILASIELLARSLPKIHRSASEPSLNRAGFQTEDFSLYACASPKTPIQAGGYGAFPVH

Row | IC50 [1] [µM] | IC50 [2] [µM] | IC50 [3] [µM] | IC50 (DHFR) [µM] | IC50 (Her2) [µM] | IC50 (EGFR) [µM] | IC50 (B-Raf) [µM] | Structure (SMILES)
1 | 5 | 6 | 10 | 0.017 |  |  |  | Cc1cc(C(=O)NC(CCC(=O)O)C(=O)O)ccc1N(Cc1cnc2nc(N)nc(N)c2n1)CC(C)(C)C (stereo not drawn) [Formula IV]
2 | 0.5 | 1 | 1 |  |  |  |  | CC(C)=CCN(Cc1cnc2nc(N)nc(N)c2n1)c1ccc(C(=O)NC(CCC(=O)O)C(=O)O)cc1C (stereo not drawn) [Formula VI]
3 | 4 | 2 | 3.5 |  | 5 |  |  | Cc1cc(C(=O)NC(CCC(=O)O)C(=O)O)ccc1N(Cc1cnc2nc(N)nc(N)c2n1)CC1CC1 (stereo not drawn) [Formula V]
4 | 4.35 | 2.5 | 4 | 0.016 |  |  |  | CC(C)(C)CN(Cc1cnc2nc(N)nc(N)c2n1)c1ccc(C(=O)NC(CCC(=O)O)C(=O)O)cc1 (stereo not drawn) [Formula X]
5 | 0.35 |  |  |  |  | > 15 | ≥ 10 | CN(Cc1cnc2nc(N)nc(N)c2n1)c1ccc(C(=O)N[C@@H](CCC(=O)O)C(=O)O)cc1 [MTX, N-[4-[[(2,4-diamino-6-pteridinyl)methyl]methylamino]benzoyl]-L-glutamic acid, reference compound]
